Reference: US8785457B2 (Cellzome Limited, priority 2009, dated 2014)

What was measured:
[1] = test system: Salmonella typhimurium strain TA1537; experiment: Ames plate assay, TA1537
Experimental: (§1) Certain compounds of the invention were tested for their potential to induce gene mutations in bacterial strains of Salmonella typhimurium (strains TA1535, TA1537, TA98, TA100) and Escherichia coli (strain WP2uvrA(pKM101)) in a bacterial mutation assay in the absence and presence of metabolite activation (rat S9-mix). Compounds are tested at the following dose levels: 50, 150, 500, or 1500 μg/plate.
(§2) Vehicle control treatment is the vehicle used to prepare the test compound formulation diluted to the same extent as the test compound solution. Positive controls using known mutagens are included for each strain with and without rat S9 mix. Four plates are used for the vehicle control and two replicate plates per dose per strain for the treated groups and for each positive control. At the end of incubation the number of revertant colonies per plate are recorded and mean values calculated for each vehicle control, positive control and concentration of test compound used. Results are also expressed as a ratio of the mean values to the mean concurrent vehicle control value (i.e. fold increase).

[2] = test system: Salmonella typhimurium strain TA100; experiment: Ames plate assay, TA100
Experimental: as §1, §2

CCOC(=O)N1Cc2nc(-c3ccc(NC(=O)NC4CC4)cc3)nc(N3CCOC[C@@H]3C)c2C1 [Example 34, (S)-ethyl 2-(4-(3-cyclopropylureido)phenyl)-4-(3-methylmorpholino)-5H-pyrrolo[3,4-d]pyrimidine-6(7H)-carboxylate]
−: Ames plate assay TA1537 +S9 ([1]; TA1537, +S9, 50 μg/Plate) | Ames plate assay TA1537 +S9 ([1]; TA1537, +S9, 150 μg/Plate) | Ames plate assay TA1537 +S9 ([1]; TA1537, +S9, 500 μg/Plate) | Ames plate assay TA1537 +S9 ([1]; TA1537, +S9, 1500 μg/Plate) | Ames plate assay TA1537 −S9 ([1]; TA1537, −S9, 50 μg/Plate) | Ames plate assay TA1537 −S9 ([1]; TA1537, −S9, 150 μg/Plate) | Ames plate assay TA1537 −S9 ([1]; TA1537, −S9, 500 μg/Plate) | Ames plate assay TA1537 −S9 ([1]; TA1537, −S9, 1500 μg/Plate) | Ames plate assay TA100 +S9 ([2]; TA100, +S9, 50 μg/Plate) | Ames plate assay TA100 +S9 ([2]; TA100, +S9, 150 μg/Plate) | Ames plate assay TA100 +S9 ([2]; TA100, +S9, 500 μg/Plate) | Ames plate assay TA100 +S9 ([2]; TA100, +S9, 1500 μg/Plate) | Ames plate assay TA100 −S9 ([2]; TA100, −S9, 50 μg/Plate) | Ames plate assay TA100 −S9 ([2]; TA100, −S9, 150 μg/Plate) | Ames plate assay TA100 −S9 ([2]; TA100, −S9, 500 μg/Plate) | Ames plate assay TA100 −S9 ([2]; TA100, −S9, 1500 μg/Plate)
